Data from patent US20180155757A1, “IDENTIFICATION OF BACTERIA THAT ARE RESISTANT TO CARBAPENEMS BY MEMBRANE IMPERVIOUSNESS” (BIOMÉRIEUX, priority 2015, published 2018).
Where two headings read alike, the source gives them in different places.

How the values were obtained:
Assay in all cases: Etest MIC of indicator carbapenems on MH II agar without/with PMBN
Type in all cases: cell-based
[1] = tested on: Enterobacter aerogenes EA 15038 (porin+); details: Klebsiella aerogenes, EA 15038 (porin+), read-out: MIC
Procedure: (§1) The determinations of antibiotic MIC were carried out on solid culture media with the Etest® method. To do this, Etest® strips (bioMérieux, France) were used: • Etest® Imipenem IM 32, and • Etest® Ertapenem ETP 32, and also solid culture media, differing from one another by virtue of their non-inhibitory concentrations of PMBN.
(§2) These solid culture media are prepared in Petri dishes (0=145 mm; V=50 ml) on a base of MH II Agar (Becton Dickinson®, United States), more or less supplemented with PMBN. The PMBN concentrations range from 0 up to concentrations equivalent to one fifth of the MIC of PMBN (⅕ MICPMBN).
(§3) Using a swab and the Retro C80™ rota-plater (bioMérieux, France), the culture media were inoculated with the bacteria, originating from an inoculum of 0.5 McFarland, prepared in 0.85% NaCl solution from colonies subcultured the day before on MH II agar.
(§4) The various Etest® strips are then deposited on the surface of the culture media. After 16 to 20 hours of incubation at 35° C., the MICS were read.

[2] = tested on: Enterobacter aerogenes EA 2 (porin+); details: Klebsiella aerogenes, EA 2 (porin+), read-out: MIC
Procedure: as §1, §2, §3, §4

[3] = tested on: K. pneumoniae 1108007 (VIM-1 producer)
Procedure: as §1, §2, §3, §4
(§5) To do this, imipenem and ertapenem were used as indicator carbapenems. Non-inhibitory concentrations of PMBN, equivalent to concentrations of one tenth ( 1/10), one eighth (⅛) and one fifth (⅕) of the MIC of PMBN, were applied.

C. freundii 0403012 = tested on: C. freundii 0403012
Procedure: as §1, §2, §3, §4, §5

[4] = tested on: E. cloacae 1008096 (VIM-1 producer)
Procedure: as §1, §2, §3, §4, §5

[5] = tested on: E. coli 1012292 (KPC-2 producer)
Procedure: as §1, §2, §3, §4, §5

[6] = tested on: K. pneumoniae 1104053 (OXA-48 producer)
Procedure: as §1, §2, §3, §4, §5

[7] = tested on: S. marcescens 1008175 (IMP-1 producer)
Procedure: as §1, §2, §3, §4, §5

[8] = tested on: K. pneumoniae 1108016 (VIM-1 producer)
Procedure: as §1, §2, §3, §4, §5

[9] = tested on: E. coli 0506040 (VIM-1 producer)
Procedure: as §1, §2, §3, §4, §5

[10] = tested on: K. pneumoniae 1108001 (KPC-2 producer)
Procedure: as §1, §2, §3, §4, §5

[11] = tested on: K. pneumoniae 1108002 (KPC-3 producer)
Procedure: as §1, §2, §3, §4, §5

[12] = tested on: E. cloacae 1008073 (VIM-1 producer)
Procedure: as §1, §2, §3, §4, §5

[13] = tested on: E. cloacae 1101172 (NDM producer)
Procedure: as §1, §2, §3, §4, §5

[14] = tested on: K. pneumoniae 0901027 (KPC-3 producer)
Procedure: as §1, §2, §3, §4, §5

C. freundii 1204047 = tested on: C. freundii 1204047
Procedure: as §1, §2, §3, §4, §5

[15] = tested on: E. cloacae 0901026 (KPC-2 producer)
Procedure: as §1, §2, §3, §4, §5

[16] = tested on: K. pneumoniae 1108006 (KPC-2 producer)
Procedure: as §1, §2, §3, §4, §5

[17] = tested on: K. pneumoniae 1012335 (OXA-48 producer)
Procedure: as §1, §2, §3, §4, §5

[18] = tested on: E. cloacae 1008079 (IMP-1 producer)
Procedure: as §1, §2, §3, §4, §5

[19] = tested on: K. pneumoniae 0404024 (VIM-1 producer)
Procedure: as §1, §2, §3, §4, §5

C[C@@H](O)[C@H]1C(=O)N2C(C(=O)O)=C(SCCN=CN)C[C@H]12 [IM, imipenem]
MIC ([1]; [PMBN] 0): 0.25 µg/mL
MIC ([1]; [PMBN] MIC/5): 0.25 µg/mL
MIC ([1]; [PMBN] MIC/8): 0.5 µg/mL
MIC ([1]; [PMBN] MIC/10): 0.5 µg/mL
MIC ([2]; [PMBN] 0): 0.03 µg/mL
MIC ([2]; [PMBN] MIC/5): 0.03 µg/mL
MIC ([2]; [PMBN] MIC/8): 0.06 µg/mL
MIC ([2]; [PMBN] MIC/10): 0.06 µg/mL
MIC ([3]; [PMBN] 0): 32 µg/mL
MIC ([3]; [PMBN] MIC/5): 16 µg/mL
MIC ([3]; [PMBN] MIC/8): 16 µg/mL
MIC ([3]; [PMBN] MIC/10): 16 µg/mL
MIC (C. freundii 0403012; [PMBN] 0): 4 µg/mL
MIC (C. freundii 0403012; [PMBN] MIC/5): 1 µg/mL
MIC (C. freundii 0403012; [PMBN] MIC/8): 1 µg/mL
MIC (C. freundii 0403012; [PMBN] MIC/10): 2 µg/mL
MIC ([4]; [PMBN] 0): 4 µg/mL
MIC ([4]; [PMBN] MIC/5): 4 µg/mL
MIC ([4]; [PMBN] MIC/8): 8 µg/mL
MIC ([4]; [PMBN] MIC/10): 8 µg/mL
MIC ([5]; [PMBN] 0): 8 µg/mL
MIC ([5]; [PMBN] MIC/5): 1 µg/mL
MIC ([5]; [PMBN] MIC/8): 4 µg/mL
MIC ([5]; [PMBN] MIC/10): 4 µg/mL
MIC ([6]; [PMBN] 0): 2 µg/mL
MIC ([6]; [PMBN] MIC/5): 2 µg/mL
MIC ([6]; [PMBN] MIC/8): 2 µg/mL
MIC ([6]; [PMBN] MIC/10): 2 µg/mL
MIC ([7]; [PMBN] 0): 128 µg/mL
MIC ([7]; [PMBN] MIC/5): 256 µg/mL
MIC ([7]; [PMBN] MIC/8): 256 µg/mL
MIC ([7]; [PMBN] MIC/10): 128 µg/mL
MIC ([8]; [PMBN] 0): 4 µg/mL
MIC ([8]; [PMBN] MIC/5): 4 µg/mL
MIC ([8]; [PMBN] MIC/8): 8 µg/mL
MIC ([8]; [PMBN] MIC/10): 8 µg/mL
MIC ([9]; [PMBN] 0): 4 µg/mL
MIC ([9]; [PMBN] MIC/5): 4 µg/mL
MIC ([9]; [PMBN] MIC/8): 4 µg/mL
MIC ([9]; [PMBN] MIC/10): 4 µg/mL
MIC ([10]; [PMBN] 0): 8 µg/mL
MIC ([10]; [PMBN] MIC/5): 4 µg/mL
MIC ([10]; [PMBN] MIC/8): 8 µg/mL
MIC ([10]; [PMBN] MIC/10): 8 µg/mL
MIC ([11]; [PMBN] 0): 16 µg/mL
MIC ([11]; [PMBN] MIC/5): 16 µg/mL
MIC ([11]; [PMBN] MIC/8): 16 µg/mL
MIC ([11]; [PMBN] MIC/10): 16 µg/mL
MIC ([12]; [PMBN] 0): 0.25 µg/mL
MIC ([12]; [PMBN] MIC/5): 0.25 µg/mL
MIC ([12]; [PMBN] MIC/8): 0.25 µg/mL
MIC ([12]; [PMBN] MIC/10): 0.25 µg/mL
MIC ([13]; [PMBN] 0): 4 µg/mL
MIC ([13]; [PMBN] MIC/5): 4 µg/mL
MIC ([13]; [PMBN] MIC/8): 16 µg/mL
MIC ([13]; [PMBN] MIC/10): 8 µg/mL
MIC ([14]; [PMBN] 0): 8 µg/mL
MIC ([14]; [PMBN] MIC/5): 16 µg/mL
MIC ([14]; [PMBN] MIC/8): 8 µg/mL
MIC ([14]; [PMBN] MIC/10): 16 µg/mL
MIC (C. freundii 1204047; [PMBN] 0): 1 µg/mL
MIC (C. freundii 1204047; [PMBN] MIC/5): 1 µg/mL
MIC (C. freundii 1204047; [PMBN] MIC/8): 1 µg/mL
MIC (C. freundii 1204047; [PMBN] MIC/10): 2 µg/mL
MIC ([15]; [PMBN] 0): 16 µg/mL
MIC ([15]; [PMBN] MIC/5): 8 µg/mL
MIC ([15]; [PMBN] MIC/8): 8 µg/mL
MIC ([15]; [PMBN] MIC/10): 16 µg/mL
MIC ([16]; [PMBN] 0): 32 µg/mL
MIC ([16]; [PMBN] MIC/5): 32 µg/mL
MIC ([16]; [PMBN] MIC/8): 64 µg/mL
MIC ([16]; [PMBN] MIC/10): 32 µg/mL
MIC ([17]; [PMBN] 0): 2 µg/mL
MIC ([17]; [PMBN] MIC/5): 2 µg/mL
MIC ([17]; [PMBN] MIC/8): 2 µg/mL
MIC ([17]; [PMBN] MIC/10): 2 µg/mL
MIC ([18]; [PMBN] 0): 2 µg/mL
MIC ([18]; [PMBN] MIC/5): 2 µg/mL
MIC ([18]; [PMBN] MIC/8): 2 µg/mL
MIC ([18]; [PMBN] MIC/10): 4 µg/mL
MIC ([19]; [PMBN] 0): 64 µg/mL
MIC ([19]; [PMBN] MIC/5): 64 µg/mL
MIC ([19]; [PMBN] MIC/8): 64 µg/mL
MIC ([19]; [PMBN] MIC/10): 64 µg/mL
